In ChEMBL document CHEMBL4609992, “Discovery of novel small molecule induced selective degradation of the bromodomain and extra-terminal (BET) bromodomain protein BRD4 and BRD2 with cellular potencies” (Bioorg Med Chem, 2020):
Calls of active or inactive are those of the source. The rule behind the calls is not given here.

What was measured:
OVCAR-4 = assay: Growth inhibition of human OVCAR4 cells assessed as cell growth inhibition incubated for 48 hrs by sulforhodamine B assay; type: functional; conditions: OVCAR-4, 48 h
SW-620 = assay: Growth inhibition of human SW620 cells assessed as cell growth inhibition incubated for 48 hrs by sulforhodamine B assay; type: functional; conditions: SW-620, 48 h
A549 = assay: Antiproliferative activity against human A549 cells assessed as reduction in cell viability; type: functional, cell-based
HT-29 = assay: Growth inhibition of human HT-29 cells assessed as cell growth inhibition incubated for 48 hrs by sulforhodamine B assay; type: functional; conditions: HT-29, 48 h
PC-3 [1] = assay: Antiproliferative activity against human PC3 cells assessed as reduction in cell viability; type: functional, cell-based
EKVX = assay: Growth inhibition of human EKVX cells assessed as cell growth inhibition incubated for 48 hrs by sulforhodamine B assay; type: functional
OVCAR-5 = assay: Growth inhibition of human OVCAR5 cells assessed as cell growth inhibition incubated for 48 hrs by sulforhodamine B assay; type: functional; conditions: OVCAR-5, 48 h
[2] = molecular target: Protein cereblon/Bromodomain-containing protein 2/Cullin-4A (Homo sapiens) (UniProt P25440+Q96SW2+Q13619); assay: Protac activity at cereblon/cullin4A/BRD2 in human MV4-11 cells assessed as induction of BRD2 degradation at 50 nM measured after 18 hrs by Western blot analysis; type: cell-based
NCI-H23 = assay: Growth inhibition of human NCI-H23 cells assessed as cell growth inhibition incubated for 48 hrs by sulforhodamine B assay; type: functional; conditions: NCI-H23, 48 h
TK-10 = assay: Growth inhibition of human TK10 cells assessed as cell growth inhibition incubated for 48 hrs by sulforhodamine B assay; type: functional; conditions: TK-10, 48 h
LOX IMVI = assay: Growth inhibition of human LOXIMVI cells assessed as cell growth inhibition incubated for 48 hrs by sulforhodamine B assay; type: functional
MV4-11 [3] = assay: Induction of apoptosis in human MV4-11 cells at < 30 nM measured after 48 hrs by Annexin V-FITC/propidium iodide staining based FACScan flow cytometry relative to control; type: functional
LNCaP-Clone-FGC = assay: Antiproliferative activity against human LNCaP-FGC cells assessed as reduction in cell viability; type: functional, cell-based
PC-3 [4] = assay: Growth inhibition of human PC3 cells assessed as cell growth inhibition incubated for 48 hrs by sulforhodamine B assay; type: functional; conditions: PC-3, 48 h
LNCaP = assay: Antiproliferative activity against human LNCAP cells assessed as reduction in cell viability; type: functional, cell-based
UACC-62 = assay: Growth inhibition of human UACC62 cells assessed as cell growth inhibition incubated for 48 hrs by sulforhodamine B assay; type: functional; conditions: UACC-62, 48 h
[5] = molecular target: Protein cereblon/Bromodomain-containing protein 4/Cullin-4A (Homo sapiens) (UniProt O60885+Q96SW2+Q13619); assay: Protac activity at cereblon/cullin4A/BRD4 in human MV4-11 cells assessed as induction of BRD4 degradation at 50 nM measured after 18 hrs by Western blot analysis relative to control; type: cell-based
SR = assay: Growth inhibition of human SR cells assessed as cell growth inhibition incubated for 48 hrs by sulforhodamine B assay; type: functional
DU-145 [6] = assay: Growth inhibition of human DU145 cells assessed as cell growth inhibition incubated for 48 hrs by sulforhodamine B assay; type: functional; conditions: DU-145, 48 h
SNB-75 = assay: Growth inhibition of human SNB75 cells assessed as cell growth inhibition incubated for 48 hrs by sulforhodamine B assay; type: functional; conditions: SNB-75, 48 h
SK-MEL-28 = assay: Growth inhibition of human SK-MEL-28 cells assessed as cell growth inhibition incubated for 48 hrs by sulforhodamine B assay; type: functional; conditions: SK-MEL-28, 48 h
SN12C = assay: Growth inhibition of human SN12C cells assessed as cell growth inhibition incubated for 48 hrs by sulforhodamine B assay; type: functional
SK-MEL-5 = assay: Growth inhibition of human SK-MEL-5 cells assessed as cell growth inhibition incubated for 48 hrs by sulforhodamine B assay; type: functional; conditions: SK-MEL-5, 48 h
MOLM-13 = assay: Antiproliferative activity against human MOLM13 cells assessed as reduction in cell viability measured after 48 hrs by CellTiter-Glo assay; type: functional, cell-based; conditions: MOLM-13, 48 h
DU-145 [7] = assay: Antiproliferative activity against human DU145 cells assessed as reduction in cell viability; type: functional, cell-based
OVCAR-3 = assay: Growth inhibition of human OVCAR3 cells assessed as cell growth inhibition incubated for 48 hrs by sulforhodamine B assay; type: functional; conditions: OVCAR-3, 48 h
NCI-H358 = assay: Antiproliferative activity against human NCI-H358 cells assessed as reduction in cell viability; type: functional, cell-based
OVCAR-8 = assay: Growth inhibition of human OVCAR8 cells assessed as cell growth inhibition incubated for 48 hrs by sulforhodamine B assay; type: functional; conditions: OVCAR-8, 48 h
MV4-11 [8] = assay: Induction of apoptosis in human MV4-11 cells measured after 24 hrs by Annexin V-FITC/propidium iodide staining based FACScan flow cytometry; type: functional, cell-based
[9] = molecular target: Protein cereblon/Bromodomain-containing protein 3/Cullin-4A (Homo sapiens, UniProt Q15059+Q96SW2+Q13619); assay: Protac activity at cereblon/cullin4A/BRD3 in human MV4-11 cells assessed as induction of BRD3 degradation at 50 nM measured after 18 hrs by Western blot analysis; type: cell-based; conditions: mv4-11, 18 h, 0.05 µM
SK-OV-3 = assay: Growth inhibition of human SKOV3 cells assessed as cell growth inhibition incubated for 48 hrs by sulforhodamine B assay; type: functional; conditions: SK-OV-3, 48 h
RXF 393 = assay: Growth inhibition of human RXF393 cells assessed as cell growth inhibition incubated for 48 hrs by sulforhodamine B assay; type: functional; conditions: RXF 393, 48 h
TT = assay: Antiproliferative activity against human TT cells assessed as reduction in cell viability; type: functional, cell-based
MDA-MB-435 = assay: Growth inhibition of human MDA-MB-435 cells assessed as cell growth inhibition incubated for 48 hrs by sulforhodamine B assay; type: functional; conditions: MDA-MB-435, 48 h
NCI-H522 = assay: Growth inhibition of human NCI-H522 cells assessed as cell growth inhibition incubated for 48 hrs by sulforhodamine B assay; type: functional; conditions: NCI-H522, 48 h
M14 = assay: Growth inhibition of human M14 cells assessed as cell growth inhibition incubated for 48 hrs by sulforhodamine B assay; type: functional; conditions: M14, 48 h
CAKI-1 = assay: Growth inhibition of human Caki1 cells assessed as cell growth inhibition incubated for 48 hrs by sulforhodamine B assay; type: functional; conditions: CAKI-1, 48 h
MDA-MB-468 = assay: Growth inhibition of human MDA-MB-468 cells assessed as cell growth inhibition incubated for 48 hrs by sulforhodamine B assay; type: functional; conditions: MDA-MB-468, 48 h
HCC 2998 = assay: Growth inhibition of human HCC2998 cells assessed as cell growth inhibition incubated for 48 hrs by sulforhodamine B assay; type: functional; conditions: HCC 2998, 48 h
SF-539 = assay: Growth inhibition of human SF539 cells assessed as cell growth inhibition incubated for 48 hrs by sulforhodamine B assay; type: functional; conditions: SF-539, 48 h
HOP-62 = assay: Growth inhibition of human HOP62 cells assessed as cell growth inhibition incubated for 48 hrs by sulforhodamine B assay; type: functional; conditions: HOP-62, 48 h

Sequence of Protein cereblon/Bromodomain-containing protein 2/Cullin-4A (Homo sapiens) (P25440 whole entry, looked up): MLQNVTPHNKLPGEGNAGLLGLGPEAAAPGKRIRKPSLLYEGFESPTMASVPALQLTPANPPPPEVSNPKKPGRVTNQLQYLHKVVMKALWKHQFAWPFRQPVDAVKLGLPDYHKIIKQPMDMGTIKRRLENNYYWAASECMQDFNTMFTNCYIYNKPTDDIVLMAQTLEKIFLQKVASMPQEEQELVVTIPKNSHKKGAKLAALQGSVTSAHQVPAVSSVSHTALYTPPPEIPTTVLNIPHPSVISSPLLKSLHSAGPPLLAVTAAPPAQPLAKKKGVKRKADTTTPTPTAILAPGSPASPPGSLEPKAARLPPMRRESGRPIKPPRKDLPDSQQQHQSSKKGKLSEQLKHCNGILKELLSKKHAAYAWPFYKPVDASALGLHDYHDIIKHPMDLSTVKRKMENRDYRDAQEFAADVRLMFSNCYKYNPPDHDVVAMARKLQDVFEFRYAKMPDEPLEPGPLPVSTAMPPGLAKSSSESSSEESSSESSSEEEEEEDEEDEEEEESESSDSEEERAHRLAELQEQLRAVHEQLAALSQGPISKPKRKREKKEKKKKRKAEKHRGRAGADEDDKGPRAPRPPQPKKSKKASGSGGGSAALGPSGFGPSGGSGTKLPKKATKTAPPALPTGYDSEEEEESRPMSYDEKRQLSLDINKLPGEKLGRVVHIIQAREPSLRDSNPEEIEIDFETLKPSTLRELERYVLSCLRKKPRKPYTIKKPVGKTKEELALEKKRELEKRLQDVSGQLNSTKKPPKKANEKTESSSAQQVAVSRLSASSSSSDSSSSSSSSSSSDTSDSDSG
Sequence of Protein cereblon/Bromodomain-containing protein 2/Cullin-4A (Homo sapiens) (Q13619 whole entry, looked up): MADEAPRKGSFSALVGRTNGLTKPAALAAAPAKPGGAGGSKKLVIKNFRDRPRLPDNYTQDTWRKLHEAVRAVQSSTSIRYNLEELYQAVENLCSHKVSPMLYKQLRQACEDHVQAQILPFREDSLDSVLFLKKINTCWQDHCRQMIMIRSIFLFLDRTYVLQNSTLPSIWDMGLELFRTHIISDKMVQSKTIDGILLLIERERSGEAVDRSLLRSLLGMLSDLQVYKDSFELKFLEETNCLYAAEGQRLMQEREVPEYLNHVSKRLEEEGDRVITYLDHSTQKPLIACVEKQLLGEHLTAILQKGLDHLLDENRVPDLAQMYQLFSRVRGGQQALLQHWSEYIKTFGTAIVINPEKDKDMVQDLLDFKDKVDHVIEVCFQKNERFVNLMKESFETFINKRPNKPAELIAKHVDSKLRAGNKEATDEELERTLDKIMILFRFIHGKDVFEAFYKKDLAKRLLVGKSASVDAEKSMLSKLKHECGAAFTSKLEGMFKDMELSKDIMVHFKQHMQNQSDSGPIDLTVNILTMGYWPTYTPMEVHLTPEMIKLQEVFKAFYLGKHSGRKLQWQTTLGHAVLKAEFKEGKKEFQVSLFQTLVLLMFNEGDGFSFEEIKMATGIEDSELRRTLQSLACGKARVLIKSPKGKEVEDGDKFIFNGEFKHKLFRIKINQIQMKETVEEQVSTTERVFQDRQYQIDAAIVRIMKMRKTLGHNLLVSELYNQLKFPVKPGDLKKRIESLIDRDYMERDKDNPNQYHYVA
Sequence of Protein cereblon/Bromodomain-containing protein 2/Cullin-4A (Homo sapiens) (Q96SW2 whole entry, looked up): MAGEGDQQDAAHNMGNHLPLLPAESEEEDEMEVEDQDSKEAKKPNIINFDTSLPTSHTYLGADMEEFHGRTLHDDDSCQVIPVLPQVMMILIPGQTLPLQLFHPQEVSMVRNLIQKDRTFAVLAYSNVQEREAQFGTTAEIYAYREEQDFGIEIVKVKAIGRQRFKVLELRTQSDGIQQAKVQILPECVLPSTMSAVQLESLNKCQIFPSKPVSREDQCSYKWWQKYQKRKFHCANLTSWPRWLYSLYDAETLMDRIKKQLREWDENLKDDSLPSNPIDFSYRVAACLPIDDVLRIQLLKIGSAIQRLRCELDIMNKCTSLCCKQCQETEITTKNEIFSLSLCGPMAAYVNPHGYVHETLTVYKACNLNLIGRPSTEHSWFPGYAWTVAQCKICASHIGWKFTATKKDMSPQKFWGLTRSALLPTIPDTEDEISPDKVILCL
Sequence of Protein cereblon/Bromodomain-containing protein 3/Cullin-4A (Q15059 whole entry): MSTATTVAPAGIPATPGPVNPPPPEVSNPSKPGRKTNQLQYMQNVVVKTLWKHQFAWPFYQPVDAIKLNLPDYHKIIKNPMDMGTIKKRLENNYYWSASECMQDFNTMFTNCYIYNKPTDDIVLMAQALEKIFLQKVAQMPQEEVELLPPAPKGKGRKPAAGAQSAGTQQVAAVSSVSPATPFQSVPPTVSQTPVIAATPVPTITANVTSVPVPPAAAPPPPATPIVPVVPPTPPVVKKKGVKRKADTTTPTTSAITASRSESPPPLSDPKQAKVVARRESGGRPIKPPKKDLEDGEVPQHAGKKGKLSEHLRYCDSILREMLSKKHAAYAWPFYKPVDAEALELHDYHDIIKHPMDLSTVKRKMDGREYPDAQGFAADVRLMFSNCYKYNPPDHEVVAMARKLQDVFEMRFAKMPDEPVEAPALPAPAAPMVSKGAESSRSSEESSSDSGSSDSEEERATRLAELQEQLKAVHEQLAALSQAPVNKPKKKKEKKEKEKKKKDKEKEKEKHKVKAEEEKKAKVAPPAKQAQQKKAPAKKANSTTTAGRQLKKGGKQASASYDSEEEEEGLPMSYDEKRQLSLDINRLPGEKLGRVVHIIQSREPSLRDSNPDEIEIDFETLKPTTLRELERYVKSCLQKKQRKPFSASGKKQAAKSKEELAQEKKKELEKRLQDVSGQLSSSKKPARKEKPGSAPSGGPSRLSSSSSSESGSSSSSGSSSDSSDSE
Sequence of Protein cereblon/Bromodomain-containing protein 3/Cullin-4A (Q96SW2 whole entry): as the sequence (Q96SW2 whole entry, looked up) above
Sequence of Protein cereblon/Bromodomain-containing protein 3/Cullin-4A (Q13619 whole entry): as the sequence (Q13619 whole entry, looked up) above

SMILES: COc1ccccc1S(=O)(=O)Nc1ccc2c3c(cc(CCC(=O)NCCCCNc4cccc5c4C(=O)N(C4CCC(=O)NC4=O)C5=O)cc13)C(=O)N2C (stereo unspecified)
- GI50 (OVCAR-4): 259 nM
- GI50 (SW-620): 249 nM
- IC50 (A549): 13700 nM
- GI50 (HT-29): 3770 nM
- IC50 (PC-3 [1]): 932 nM
- GI50 (EKVX): 7480 nM
- GI50 (OVCAR-5): 2740 nM
- Activity [2]: Active
- GI50 (NCI-H23): 37500 nM
- GI50 (TK-10): 895 nM
- GI50 (LOX IMVI): 3970 nM
- Activity (MV4-11 [3]): 86.86%
- IC50 (LNCaP-Clone-FGC): 910 nM
- GI50 (PC-3 [4]): 248 nM
- IC50 (LNCaP): 620 nM
- GI50 (UACC-62): 5450 nM
- Activity [5]: 100%
- GI50 (SR): 122 nM
- GI50 (DU-145 [6]): 5910 nM
- GI50 (SNB-75): 89 nM
- GI50 (SK-MEL-28): 891 nM
- GI50 (SN12C): 447 nM
- GI50 (SK-MEL-5): 1120 nM
- IC50 (MOLM-13): 52 nM
- IC50 (DU-145 [7]): 3660 nM
- GI50 (OVCAR-3): 1830 nM
- IC50 (NCI-H358): 1380 nM
- GI50 (OVCAR-8): 360 nM
- Activity (MV4-11 [8]): Dose-dependent effect
- Activity [9]: Not Active
- GI50 (SK-OV-3): 1630 nM
- GI50 (RXF 393): 864 nM
- IC50 (TT): 37.4 nM
- GI50 (MDA-MB-435): 819 nM
- GI50 (NCI-H522): 2740 nM
- GI50 (M14): 937 nM
- GI50 (CAKI-1): 2630 nM
- GI50 (MDA-MB-468): 20 nM
- GI50 (HCC 2998): 316 nM
- GI50 (SF-539): 752 nM
- GI50 (HOP-62): 416 nM
